Where no end group is shown, it is not given here.
Assays:
E. coli 25922 = assay type: cell-based, Escherichia coli; conditions: 25922, 24 h
Method in brief: (§1)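 Absorbance at 492 nm after 24 h at 37°C defined the MIC as the lowest peptide level inhibiting 95% of growth. Inoculum was 0.5–1 × 10^6 CFU mL^–1 mid-log cells in MHB; peptides were diluted in 0.2% BSA.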

E. coli O78 = assay type: cell-based, Escherichia coli; conditions: O78, 24 h
Method in brief: as §1

E. coli UB1005 = assay type: cell-based, Escherichia coli; conditions: UB1005, 24 h
Method in brief: as §1

S. typhimurium 14028 = assay type: cell-based, Salmonella typhimurium; conditions: 14028, 24 h
Method in brief: as §1

S. typhimurium 7731 = assay type: cell-based, Salmonella typhimurium; conditions: 7731, 24 h
Method in brief: as §1

S. pullorum 7913 = assay type: cell-based, Salmonella pullorum; conditions: 7913, 24 h
Method in brief: as §1

P. aeruginosa 27853 = assay type: cell-based, Pseudomonas aeruginosa; conditions: 27853, 24 h
Method in brief: as §1

E. coli K88 = test system: E. coli K88
Method: (§2) The antimicrobial activities of the peptides were measured using a method adapted from the National Committee for Clinical Laboratory Standards (NCCLS) with some modifications ([Chou et al., 2016]). The specific procedure for these assays has been previously described. In brief, the bacterial cells were grown to a mid-logarithmic phase and diluted in MHB to an ultimate concentration of 0.5–1 × 10^6 CFU mL^–1. Subsequently, the peptides were consecutively diluted in a 0.2% BSA solution and then added to a bacterial solution in a 96-well plate at identical volumes. After incubation for 24 h at 37°C, the MICs were determined to be the lowest peptide concentration that inhibited 95% of the bacterial growth by monitoring the absorbance at 492 nm using a microplate reader. Subsequently, 50 μL of each incubation mixture was further transferred to agar plates and incubated overnight. […] Every assay was reproduced more than 3 times.

E. coli K99 = test system: E. coli K99
Method: as §2

Gram-negative bacteria [1] = test system: Gram-negative bacteria
Method in brief: (§3)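 Broth microdilution adapted from NCCLS: mid-log bacteria diluted in MHB to 0.5–1 × 10^6 CFU mL^–1, mixed with peptides serially diluted in 0.2% BSA. After 24 h at 37°C, MIC taken as the lowest concentration inhibiting 95% of growth by absorbance at 492 nm. Assays repeated more than 3 times.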

Gram-positive bacteria [2] = test system: Gram-positive bacteria
Method in brief: as §3

S. aureus 25923 = assay type: cell-based, Staphylococcus aureus; conditions: 25923, 24 h
Method in brief: as §1

S. aureus 29213 [3] = assay type: cell-based, Staphylococcus aureus; conditions: 29213, 24 h
Method in brief: as §1

S. epidermidis 12228 = assay type: cell-based, Staphylococcus epidermidis; conditions: 12228, 24 h
Method in brief: as §1

MRSA 43300 = assay type: cell-based, methicillin-resistant S. aureus; conditions: 43300, 24 h
Method in brief: as §1

B. subtilis 63501 = assay type: cell-based, Bacillus subtilis; conditions: 63501, 24 h
Method in brief: as §1

E. faecalis 29212 = assay type: cell-based, Enterococcus faecalis; conditions: 29212, 24 h
Method in brief: as §1

[4] = test system: Listeria monocytogenes CGMCC 1.1075; assay type: cell-based; conditions: CGMCC 1.1075, 24 h
Method in brief: as §1

[5] = test system: all of the tested bacterial strains; test: Geometric mean of MICs, all tested bacterial strains; assay type: cell-based
Method in brief: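 Mid-log bacteria at 0.5–1 × 10^6 CFU mL^–1 in MHB with peptides serially diluted in 0.2% BSA, 24 h at 37°C. MIC is the lowest concentration giving 95% growth inhibition by A492. MBC is the lowest giving >99.9% kill on agar subculture, and the GM is taken over all strains.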

E. coli ATCC 25922 = test: Salt sensitivity assay (MIC); assay type: cell-based, Escherichia coli
Method in brief: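 The salt sensitivity of peptides was tested against E. coli ATCC 25922 using a modified NCCLS broth microdilution MIC method. Mid-log bacteria were diluted in MHB to 0.5–1 × 10^6 CFU mL^–1 and mixed in equal volumes with peptides serially diluted in 0.2% BSA in 96-well plates. Physiological salt was added where specified, and the assay was done three independent times.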

S. aureus 29213 [6] = test: Salt sensitivity assay (MIC); assay type: cell-based, Staphylococcus aureus
Method in brief: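 MICs determined by broth microdilution in MHB with 0.5–1 × 10^6 CFU/mL, peptides serially diluted in 0.2% BSA, 24 h at 37°C. Medium supplemented with physiological salts (150 mM NaCl, 4.5 mM KCl, 6 μM NH4Cl, 8 μM ZnCl2, 1 mM MgCl2, 2mM CaCl2, 4 μM FeCl3). MIC = lowest concentration inhibiting 95% growth (A492).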

Gram-negative bacteria [7] = conditions: geometric mean of MBCs, 9 Gram-negative strains (Table 2)
Gram-positive bacteria [8] = conditions: geometric mean of MBCs, 7 Gram-positive strains (Table 2)
[9] = MHB, 24 h 37°C, 95% growth inhibition
[10] = value in brackets, >99.9% of cells killed
[11] = therapeutic index TI = MHC/GM MIC
[12] = no added salt, three independent assays

Question: What does the source list for RRLLLLRRL-NH2 [L7]?
Answer: MIC (E. coli 25922): > 64 µM; MBC (E. coli O78): 128 µM; MIC (E. coli O78): 64 µM; MIC (E. coli UB1005): >64 µM; MIC (S. typhimurium 14028): > 64 µM; MIC (S. typhimurium 7731): > 64 µM; MIC (S. pullorum 7913): >64 µM; MIC (P. aeruginosa 27853): > 64 µM; MIC (E. coli K88; [9]): 32 µM; MBC (E. coli K88; [10]): 64 µM; MIC (E. coli K99; [9]): 64 µM; MBC (E. coli K99; [10]): 128 µM; GM MIC (Gram-negative bacteria [1]; geometric mean of MICs, 9 Gram-negative strains (Table 2)): 94.06 µM; TI, Gram-negative bacteria (Gram-negative bacteria [1]; [11]): 2.72; GM MIC (Gram-positive bacteria [2]; geometric mean of MICs, 7 Gram-positive strains (Table 2)): 64.00 µM; TI, Gram-positive bacteria (Gram-positive bacteria [2]; [11]): 4.00; MIC (S. aureus 25923): > 64 µM; MIC (S. aureus 29213 [3]): >64 µM; MIC (S. epidermidis 12228): > 64 µM; MIC (MRSA 43300): >64 µM; MBC (B. subtilis 63501): 16 µM; MIC (B. subtilis 63501): 8 µM; MIC (E. faecalis 29212): > 64 µM; MBC [4]: 32 µM; MIC [4]: 16 µM; GM, All ([5]; geometric mean of MICs across all tested strains): 79.48 µM; TI, All [5, 11]: 3.22; MIC, FeCl3 (E. coli ATCC 25922; 4 μM FeCl3): > 64 µM; MIC, NH4Cl (E. coli ATCC 25922; 6 μM NH4Cl): > 64 µM; MIC, ZnCl2 (E. coli ATCC 25922; 8 μM ZnCl2): > 64 µM; MIC, MgCl2 (E. coli ATCC 25922; 1 mM MgCl2): > 64 µM; MIC, CaCl2 (E. coli ATCC 25922; 2 mM CaCl2): > 64 µM; MIC, KCl (E. coli ATCC 25922; 4.5 mM KCl): > 64 µM; MIC, NaCl (E. coli ATCC 25922; 150 mM NaCl): > 64 µM; MIC, Control (E. coli ATCC 25922; [12]): > 64 µM; MIC, FeCl3 (S. aureus 29213 [6]; 4 μM FeCl3): > 64 µM; MIC, NH4Cl (S. aureus 29213 [6]; 6 μM NH4Cl): > 64 µM; MIC, ZnCl2 (S. aureus 29213 [6]; 8 μM ZnCl2): > 64 µM; MIC, MgCl2 (S. aureus 29213 [6]; 1 mM MgCl2): > 64 µM; MIC, CaCl2 (S. aureus 29213 [6]; 2 mM CaCl2): > 64 µM; MIC, KCl (S. aureus 29213 [6]; 4.5 mM KCl): > 64 µM; MIC, NaCl (S. aureus 29213 [6]; 150 mM NaCl): > 64 µM; MIC, Control (S. aureus 29213 [6]; [12]): > 64 µM; GM MBC (Gram-negative bacteria [7]): 118.51 µM; GM MBC (Gram-positive bacteria [8]): 78.02 µM
